Data published in patent US10813909B2 (THE REGENTS OF THE UNIVERSITY OF CALIFORNIA, priority 2016, dated 2020).
Entries after “also recorded” stand apart in the source; their conditions may differ.

Legend:
[1] = tested on: BIRC5; test: Cardiac glycosides, BIRC5 expression in pancreatic cancer; assay type: cell-based
[2] = tested on: patient-derived pancreatic cancer cell line #15 (PDCL-15); test: Cell viability/proliferation (CellTiter-Glo, Gaussia luciferase), patient-derived line #15; assay type: cell-based, human; details: in vitro; metformin 500 μM, simvastatin 4 μM, digoxin 50 nM, alone or combined; paclitaxel 100 nM where added
[3] = tested on: DUSP15 and RHOB; test: Cell death/apoptosis related gene expression in PDCL5 (RNA-Seq, real-time PCR); details: PDCL5 in vitro
[4] = tested on: PANC1 cells; test: Cell viability/proliferation, PANC1; assay type: cell-based, human; details: in vitro; metformin 500 μM, simvastatin 4 μM, digoxin 50 nM, alone or combined; paclitaxel 100 nM where added
[5] = tested on: MIA PaCa2 cells; test: Cell viability/proliferation, MIA PaCa2; assay type: cell-based, human; details: in vitro; metformin 500 μM, simvastatin 4 μM, digoxin 50 nM, alone or combined; paclitaxel 100 nM where added
[6] = tested on: patient-derived pancreatic cancer cell line #5 (PDCL-5); test: Cell viability/proliferation (CellTiter-Glo, Gaussia luciferase), patient-derived line #5; assay type: cell-based, human; details: in vitro; metformin 500 μM, simvastatin 4 μM, digoxin 50 nM, alone or combined; paclitaxel 100 nM where added
[7] = tested on: pancreatic cancer cell lines; test: Proliferation, viability and apoptosis of pancreatic cancer cell lines in vitro (line not specified); assay type: cell-based, human
[8] = tested on: Capan2 cells; test: Cell viability, Capan2; assay type: cell-based, human; details: in vitro, with and without paclitaxel
[9] = tested on: BIRC5 promoter; test: High-throughput drug screening with BIRC5 synthetic promoter; assay type: cell-based, human; details: high-throughput screening of FDA-approved drug libraries, MIA PaCa2 cells
Description: FIG. 12 is a graph illustrating BIRC5 SP high-throughput (HTS) drug screening in MIA PaCa2 cells, in accordance with one or more embodiments of the invention;
Pancreatic ductal adenocarcinoma (PDAC) is one of the most deadly forms of cancer and almost all patients with PDAC succumb to this lethal disease within months of diagnosis. To fight against PDAC, we utilized the concept of an “actionable gene”, on which action can be taken to alter disease progression or guide choice of therapy. We have identified actionable gene, BIRC5, for PDAC using microarray data sets and our own RNA-Seq data of PDAC patient specimens. […] .

[10] = tested on: BIRC5 mRNA; test: BIRC5 mRNA expression in PDCL15 in vitro; assay type: cell-based, human
[11] = tested on: BIRC5 mRNA; test: BIRC5 mRNA expression in PDCL5 in vitro; assay type: cell-based, human
[12] = tested on: AsPC1 cells; test: Cell viability, AsPC1; assay type: cell-based, human; details: in vitro
[13] = tested on: HK2, LDHA, LDHB, ENO2, ENO1; test: Transcriptome analysis of glycolysis/TCA cycle/Warburg effect genes in pancreatic cancer cell lines; details: patient-derived and commercial pancreatic cancer cell lines
[14] = mice; cited from earlier work

## C[C@]12CC[C@H](O)C[C@H]1CC[C@@H]1[C@@H]2CC[C@]2(C)[C@@H](C3=CC(=O)OC3)CC[C@]12O [Digitoxigenin]
[1]
  BIRC5 expression in pancreatic cancer: inhibit BIRC5 expression

## CN(C)C(=N)N=C(N)N [Metformin, metformin]
[2]
  cell viability / proliferation, patient-derived pancreatic cancer cell #15: suppresses; also recorded: suppress
[3]
  cell death/apoptosis related gene expression (DUSP15, RHOB): do not have an effect
[4]
  cell viability / proliferation, PANC1: suppresses; also recorded: suppress
[5]
  cell viability / proliferation, MIA PaCa2: suppresses; also recorded: suppress
[6]
  cell viability / proliferation, patient-derived pancreatic cancer cell #5: suppresses; also recorded: suppress
[7]
  cell proliferation / viability, pancreatic cancer cell lines: suppresses
[8]
  cell viability, Capan2: suppress
[9]
  expression from the BIRC5 promoter: target BIRC5
[10]
  BIRC5 mRNA expression, PDCL #15: suppress
[11]
  BIRC5 mRNA expression, PDCL #5: suppress
[12]
  cell viability, AsPC1: suppress
[13]
  glycolysis / TCA cycle / Warburg effect related gene expression: inhibitory effect

## C[C@@H]1O[C@@H](O[C@H]2C[C@@H](O)[C@]3(CO)[C@H]4[C@H](O)C[C@]5(C)[C@@H](C6=CC(=O)OC6)CC[C@]5(O)[C@@H]4CC[C@]3(O)C2)[C@H](O)[C@H](O)[C@H]1O [Ouabain, ouabain]
[5]
  cell viability / proliferation, MIA PaCa2: suppresses
[1]
  BIRC5 expression in pancreatic cancer: inhibit BIRC5 expression

## C[C@]12CC[C@H](O)C[C@H]1CC[C@@H]1[C@@H]2CC[C@]2(C)[C@@H](c3ccc(=O)oc3)CC[C@]12O [bufalin]
[1]
  BIRC5 expression in pancreatic cancer: inhibit BIRC5 expression

## CC[C@H](C)C(=O)O[C@H]1C[C@@H](C)C=C2C=C[C@H](C)[C@H](CC[C@@H]3C[C@@H](O)CC(=O)O3)[C@H]21 [Lovastatin, lovastatin]
[5]
  cell viability / proliferation, MIA PaCa2: suppresses
[10]
  BIRC5 mRNA expression, PDCL #15: suppress
[11]
  BIRC5 mRNA expression, PDCL #5: suppress

## CC(C)n1c(/C=C/C(O)CC(O)CC(=O)O)c(-c2ccc(F)cc2)c2ccccc21 (centres unmarked) [fluvastatin]
[5]
  cell viability / proliferation, MIA PaCa2: suppresses
[10]
  BIRC5 mRNA expression, PDCL #15: suppress
[11]
  BIRC5 mRNA expression, PDCL #5: suppress

## CC(=O)O[C@H]1C[C@H](O[C@H]2[C@@H](O)C[C@H](O[C@H]3[C@@H](O)C[C@H](O[C@H]4CC[C@@]5(C)[C@H](CC[C@@H]6[C@@H]5C[C@@H](O)[C@]5(C)[C@@H](C7=CC(=O)OC7)CC[C@]65O)C4)O[C@@H]3C)O[C@@H]2C)O[C@H](C)[C@H]1O[C@@H]1O[C@H](CO)[C@@H](O)[C@H](O)[C@H]1O [Lanatoside C]
[1]
  BIRC5 expression in pancreatic cancer: inhibit BIRC5 expression

## C[C@H]1O[C@@H](O[C@H]2[C@@H](O)C[C@H](O[C@H]3[C@@H](O)C[C@H](O[C@H]4CC[C@@]5(C)[C@H](CC[C@@H]6[C@@H]5C[C@@H](O)[C@]5(C)[C@@H](C7=CC(=O)OC7)CC[C@]65O)C4)O[C@@H]3C)O[C@@H]2C)C[C@H](O)[C@@H]1O [Digoxin, digoxin]
[2]
  cell viability / proliferation, patient-derived pancreatic cancer cell #15: suppresses; also recorded: suppress
[3]
  cell death/apoptosis related gene expression (DUSP15, RHOB): do not have an effect
[4]
  cell viability / proliferation, PANC1: suppresses; also recorded: suppress
[5]
  cell viability / proliferation, MIA PaCa2: suppresses; also recorded: suppress
[14]
  Lethal Dose (LD50): 4 mg/kg
[6]
  cell viability / proliferation, patient-derived pancreatic cancer cell #5: suppresses; also recorded: suppress
[8]
  cell viability, Capan2: suppress
[1]
  BIRC5 expression in pancreatic cancer: inhibit BIRC5 expression
[9]
  expression from the BIRC5 promoter: target BIRC5
[10]
  BIRC5 mRNA expression, PDCL #15: suppress
[11]
  BIRC5 mRNA expression, PDCL #5: suppress
[12]
  cell viability, AsPC1: suppress
